Data as given in patent US7408024B2, “Somatostatin antagonists” (The Administrators of the Tulane Educational Fund, priority 2001, dated 2008).
Where a SMILES comes first, the peptide text is derived from it. Bridges are numbered along the chain shown (N, C = ends). [ ]: non-standard residue; d: D form. Phe(4-Cl) = N[C@@H](Cc1ccc(Cl)cc1)C(=O)O; dNMeW = CN[C@H](Cc1c[nH]c2ccccc12)C(=O)O; Dip = N[C@H](C(=O)O)C(c1ccccc1)c1ccccc1; 2Nal = N[C@@H](Cc1ccc2ccccc2c1)C(=O)O; NMeT = CN[C@H](C(=O)O)[C@@H](C)O; 3Pal = N[C@@H](Cc1cccnc1)C(=O)O; NMeK = CN[C@@H](CCCCN)C(=O)O; NMeC = CN[C@@H](CS)C(=O)O; dNMeC = CN[C@H](CS)C(=O)O

Legend:
hsst2 = biological target: T1, hsst2 (Homo sapiens, UniProt P30874); assay: Radioligand binding, cloned human sst2 receptor (CHO-K1 membranes); conditions: [125I]MK-678, CHO-K1 cell membranes; single values = one binding experiment; read-out: K1 ± SEM hsst2
T1 construct: each containing the entire coding region of the full-length receptors; expressed in transfected cells
Source text: (§1) The genomic clones containing the human somatostatin receptors (hsstr1-5) (Yamada, Y., et al. al., Proc. Natl. Acad. Sci. USA. 1992, 89, 251-255; Yasuda, K., et al., J. Biol. Chem. 1992, 267, 20422-20428; Yamada, Y., et al., Mol. Pharmacol. 1992, 42, 2136-2142; Rohrer, L., et al., Proc. Natl. Acad. Sci. USA. 1993, 90, 4196-4200.), were kindly provided by Dr. Graeme I. Bell (University of Chicago). The hsstr1, hsstr2, hsstr3, hsstr4 and hsstr5 cDNAs were isolated as a 1.5-kb PstI-XmnI fragment, 1.7-kb BamHI-HindIII fragment, 2.0-kb NcoI-HindIII fragment, 1.4-kb NheI-NdeI fragment, and a 1.2-kb HindIII-XbaI fragment, respectively, each containing the entire coding region of the full-length receptors. These fragments were independently subdloned into the corresponding restriction endonuclease sites in the mammalian expression vector pCMV5, downstream from the human cytomegalovirus (CMV) promoter, to produce the expression plasmids pCMV5/hsstr1, pCMV5/hsstr2, pCMV5/hsstr3, pCMV5/hsstr4 and pCMV5/hsstr5. For transfection into CHO-K1 cells, a plasmid, pRSV-neo (American Type Culture Collection, Rockville, Md.), carrying the neomycin mammalian cell selectable marker was added.
(§2) Transfections were performed by the calcium phosphate method. CHO-K1 cells are maintained in α-minimum essential medium (α-MEM; Gibco) supplemented with 10% fetal calf serum and transfected with each of the expression plasmids using calcium phosphate precipitation. Clones that had inherited the expression plasmid were selected in α-MEM supplemented with 500 μg mL^−1 of geneticin (G418; Gibco). Independent CHO-K1 clones were picked by glass-ring cloning and expanded in culture in the selective media. Membranes were prepared from the isolated clones and hsstr expression was initially assessed for binding with [^125I]Tyr^11-SRIF and [^125]IMK-678 (for sstr2).
(§3) Cell membranes of the 5 receptor types were obtained from homogenates (Polytron setting 6, 15 sec) of the corresponding CHO-K1 cells, in ice-cold Tris-HCl (50 mM) and centrifuged (39000 g, 10 min×2), with an intermediate resuspension in fresh buffer. The final pellets are resuspended in Tris-HCl (10 mM) for assay. Aliquots of the membranes are incubated (30 min at 37° C.) with 0.05 nM [^125I]Tyr^11-SRIF (types 1,3,4,5) or [^125I]MK-678 (type 2) in 50 mM HEPES (pH 7.4) containing BSA (10 mg mL^−1); MgCl2 (5 mM), Trasylol (200 kIU mL^−1), bacitracin (0.02 mg mL^−1), and phenylmethanesulfonyl fluoride (0.02 mg mL^−1). The final assay volume is 0.3 mL and incubations are terminated by rapid filtration through GF/C filters pre-soaked in 0.3% poly(ethylenimine) using a Brandel rapid filtration module. Each tube and filter is then washed with aliquots of cold buffer (3×5 mL).
(§4) Specific binding is. defined as the total radioligand bound minus that bound in the presence of 1.0 μM SRIF.

hsst4 = biological target: T2, hsst4 (Homo sapiens, UniProt P31391); assay: Radioligand binding, cloned human sst4 receptor (CHO-K1 membranes); conditions: [125I]Tyr11-SRIF, CHO-K1 cell membranes; single values = one binding experiment; read-out: K1 ± SEM hsst4
T2 construct: each containing the entire coding region of the full-length receptors; expressed in transfected cells
Source text: as §1, §2, §3, §4

hsst1 = biological target: T3, hsst1 (Homo sapiens, UniProt P30872); assay: Radioligand binding, cloned human sst1 receptor (CHO-K1 membranes); conditions: [125I]Tyr11-SRIF, CHO-K1 cell membranes; single values = one binding experiment; read-out: K1 ± SEM hsst1
T3 construct: each containing the entire coding region of the full-length receptors; expressed in transfected cells
Source text: as §1, §2, §3, §4

hsst3 = biological target: T4, hsst3 (Homo sapiens, UniProt P32745); assay: Radioligand binding, cloned human sst3 receptor (CHO-K1 membranes); conditions: [125I]Tyr11-SRIF, CHO-K1 cell membranes; single values = one binding experiment; read-out: K1 ± SEM hsst3
T4 construct: each containing the entire coding region of the full-length receptors; expressed in transfected cells
Source text: as §1, §2, §3, §4

hsst5 = biological target: T5, hsst5 (Homo sapiens, UniProt P35346); assay: Radioligand binding, cloned human sst5 receptor (CHO-K1 membranes); conditions: [125I]Tyr11-SRIF, CHO-K1 cell membranes; single values = one binding experiment; read-out: K1 ± SEM hsst5
T5 construct: each containing the entire coding region of the full-length receptors; expressed in transfected cells
Source text: as §1, §2, §3, §4

[1] = system: SRIF inhibition of GH release in rat anterior pituitary cells; type: cell-based
Experimental: Anterior pituitaries from adult male rats were collected and dispersed by a previously described trypsin/DNase method. (Murphy, W. A.; Taylor, J.; Moreau, J.-P. and Coy, D. […] Sigma) and nystatin (10,000 U mL^−1; Gibco). The cells were randomly plated at a density of approximately 200,000 cells/well (Costar cluster 24; Rochester Scientific Co., Rochester, N.Y.). The plated cells were maintained in the above Dulbecco's medium in a humidified atmosphere of 95% air/5% CO2 at 37° C. for 4-6 days. In preparation for a hormone challenge, the cells were washed with medium 199 (Gibco, 3×1 mL). […] Sigma Chemical Co.). […] After 3 h incubation in an air/carbon dioxide atmosphere (95/5%, 3 h at 37° C.), the medium was removed and stored at −20° C. until assayed for hormone content. Growth hormone in media was measured by a standard double antibody RIA using components generously supplied by Dr. A. F. Parlow at the National Hormone and Pituitary Program (NHHP) Torrance, Calif.

T2 sequence (P31391 whole entry): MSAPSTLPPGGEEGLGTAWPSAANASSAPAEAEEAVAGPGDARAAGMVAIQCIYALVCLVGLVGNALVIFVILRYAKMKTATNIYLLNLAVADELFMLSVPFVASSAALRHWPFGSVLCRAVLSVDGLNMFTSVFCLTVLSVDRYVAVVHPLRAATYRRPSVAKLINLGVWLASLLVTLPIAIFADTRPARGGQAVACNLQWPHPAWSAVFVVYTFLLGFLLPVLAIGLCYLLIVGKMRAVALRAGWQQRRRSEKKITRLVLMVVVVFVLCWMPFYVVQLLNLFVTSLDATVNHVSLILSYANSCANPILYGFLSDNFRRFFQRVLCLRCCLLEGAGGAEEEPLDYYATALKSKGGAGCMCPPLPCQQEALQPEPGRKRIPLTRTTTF
T5 sequence (P35346 whole entry): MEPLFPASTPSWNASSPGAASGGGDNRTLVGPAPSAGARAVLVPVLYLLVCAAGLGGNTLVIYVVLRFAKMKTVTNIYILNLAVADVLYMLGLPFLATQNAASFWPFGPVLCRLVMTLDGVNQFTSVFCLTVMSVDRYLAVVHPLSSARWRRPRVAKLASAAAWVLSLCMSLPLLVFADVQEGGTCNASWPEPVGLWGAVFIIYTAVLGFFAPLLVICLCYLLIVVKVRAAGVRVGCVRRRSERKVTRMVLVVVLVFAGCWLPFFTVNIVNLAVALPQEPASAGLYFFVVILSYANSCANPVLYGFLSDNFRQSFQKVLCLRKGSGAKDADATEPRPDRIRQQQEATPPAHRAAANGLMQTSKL
T1 sequence (P30874 whole entry): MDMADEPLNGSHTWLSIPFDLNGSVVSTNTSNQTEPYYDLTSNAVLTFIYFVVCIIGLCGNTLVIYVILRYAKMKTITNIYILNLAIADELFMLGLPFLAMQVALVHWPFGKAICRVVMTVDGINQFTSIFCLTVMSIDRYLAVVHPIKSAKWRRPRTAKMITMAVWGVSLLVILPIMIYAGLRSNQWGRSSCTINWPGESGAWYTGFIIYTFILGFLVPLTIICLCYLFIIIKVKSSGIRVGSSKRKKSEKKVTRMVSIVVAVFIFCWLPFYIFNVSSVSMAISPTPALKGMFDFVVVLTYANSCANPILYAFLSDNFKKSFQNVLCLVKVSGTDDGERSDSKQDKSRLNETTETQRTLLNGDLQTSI
T4 sequence (P32745 whole entry): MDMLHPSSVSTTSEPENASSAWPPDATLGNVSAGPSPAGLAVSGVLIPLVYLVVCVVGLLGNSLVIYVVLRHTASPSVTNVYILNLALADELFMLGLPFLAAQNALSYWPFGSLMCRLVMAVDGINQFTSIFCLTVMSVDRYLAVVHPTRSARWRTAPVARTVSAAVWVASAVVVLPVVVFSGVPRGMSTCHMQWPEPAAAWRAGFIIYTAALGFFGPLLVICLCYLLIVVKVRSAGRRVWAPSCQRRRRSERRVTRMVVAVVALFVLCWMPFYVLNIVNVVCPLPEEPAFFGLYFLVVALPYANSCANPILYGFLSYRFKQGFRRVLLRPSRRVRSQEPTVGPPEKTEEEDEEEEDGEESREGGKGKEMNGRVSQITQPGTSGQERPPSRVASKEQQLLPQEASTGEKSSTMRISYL
T3 sequence (P30872 whole entry): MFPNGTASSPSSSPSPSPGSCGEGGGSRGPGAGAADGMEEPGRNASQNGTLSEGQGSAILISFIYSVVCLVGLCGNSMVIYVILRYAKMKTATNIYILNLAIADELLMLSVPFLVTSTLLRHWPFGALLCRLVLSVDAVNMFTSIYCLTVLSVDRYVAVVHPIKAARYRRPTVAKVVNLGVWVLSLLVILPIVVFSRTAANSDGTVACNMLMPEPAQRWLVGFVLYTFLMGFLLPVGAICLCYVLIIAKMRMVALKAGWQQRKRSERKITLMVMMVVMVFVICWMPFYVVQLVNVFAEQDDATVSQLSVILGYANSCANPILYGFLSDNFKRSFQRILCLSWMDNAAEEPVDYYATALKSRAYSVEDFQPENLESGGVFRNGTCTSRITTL

Ki (hsst2) | Ki (hsst4) | Ki (hsst1) | Ki (hsst3) | Ki (hsst5) | IC50 [1] | SMILES
1000 nM | 1000 nM | 395 ± 202 nM | 315 ± 12.5 nM | – | – | C[C@@H](O)[C@H]1C(=O)N[C@H](C(=O)N[C@@H](Cc2ccc3ccccc3c2)C(N)=O)CSSC[C@@H](NC(=O)[C@@H](N)Cc2ccc(Cl)cc2)C(=O)N[C@@H](Cc2cccnc2)C(=O)N[C@H](Cc2c[nH]c3ccccc23)C(=O)N[C@@H](CCCCN)C(=O)N1C [Peptide 6, Cpa-cyclo(DCys-3-Pal-DTrp-Lys-NMeThr-Cys)-2-Nal-NH2] (H-[Phe(4-Cl)][dC][3Pal][dW]K[NMeT]C[2Nal]-NH2; disulfide 2-7)
51.8 ± 2.6 nM | – | – | 390 ± 114 nM | 93 ± 17.7 nM | – | C[C@@H](O)[C@@H]1NC(=O)[C@H](CCCCN)NC(=O)[C@@H](Cc2c[nH]c3ccccc23)N(C)C(=O)[C@H](Cc2cccnc2)NC(=O)[C@H](NC(=O)[C@@H](N)Cc2ccc(Cl)cc2)CSSC[C@@H](C(=O)N[C@@H](Cc2ccc3ccccc3c2)C(N)=O)NC1=O [Peptide 4, Cpa-cyclo(DCys-3-Pal-NMeDTrp-Lys-Thr-Cys)-2-Nal-NH2] (H-[Phe(4-Cl)][dC][3Pal][dNMeW]KTC[2Nal]-NH2; disulfide 2-7)
810 nM | 575 nM | – | 68.7 ± 4.7 nM | – | – | C[C@@H](O)[C@@H]1NC(=O)[C@H](CCCCN)NC(=O)[C@@H](Cc2c[nH]c3ccccc23)NC(=O)[C@H](Cc2cccnc2)NC(=O)[C@H](NC(=O)[C@@H](N)Cc2ccc(Cl)cc2)CSSC[C@@H](C(=O)N[C@@H](Cc2ccc3ccccc3c2)C(N)=O)N(C)C1=O [Peptide 7, Cpa-cyclo(DCys-3-Pal-DTrp-Lys-Thr-NmeCys)-2-Nal-NH2] (H-[Phe(4-Cl)][dC][3Pal][dW]KT[NMeC][2Nal]-NH2; disulfide 2-7)
5.51 ± 1.85 nM | 1000 nM | 1000 nM | 115 ± 16.9 nM | – | 0.53 ± 0.17 nM | C[C@@H](O)[C@@H]1NC(=O)[C@H](CCCCN)N(C)C(=O)[C@@H](Cc2c[nH]c3ccccc23)NC(=O)[C@H](Cc2ccc(O)cc2)NC(=O)[C@H](NC(=O)[C@@H](N)Cc2ccc(Cl)cc2)CSSC[C@@H](C(=O)N[C@@H](Cc2ccc3ccccc3c2)C(N)=O)NC1=O [Peptide 12, Cpa-cyclo(DCys-Tyr-DTrp-NMeLys-Thr-Cys)-2-Nal-NH2] (H-[Phe(4-Cl)][dC]Y[dW][NMeK]TC[2Nal]-NH2; disulfide 2-7)
12.1 ± 1.9 nM | 1000 nM | – | 38.2 ± 2.4 nM | – | – | C[C@@H](O)[C@@H]1NC(=O)[C@H](CCCCN)NC(=O)[C@@H](Cc2c[nH]c3ccccc23)NC(=O)[C@H](Cc2cccnc2)NC(=O)[C@H](NC(=O)[C@@H](N)Cc2ccc(Cl)cc2)CSSC[C@@H](C(=O)N[C@@H](Cc2ccc3ccccc3c2)C(N)=O)NC1=O [Peptide 9, Cpa-cyclo(DCys-3-Pal-DTrp-Lys-Thr-Cys)-Nal-NH2]
89 ± 8 nM | 1000 nM | 1000 nM | 576 ± 47 nM | 106 ± 36 nM | – | CNC(=O)[C@H](Cc1ccc2ccccc2c1)NC(=O)[C@@H]1CSSC[C@@H](N(C)C(=O)[C@@H](N)Cc2ccc(Cl)cc2)C(=O)N[C@@H](Cc2cccnc2)C(=O)N[C@H](Cc2c[nH]c3ccccc23)C(=O)N[C@@H](CCCCN)C(=O)N[C@@H]([C@@H](C)O)C(=O)N1 [Peptide 2, Cpa-cyclo(NmeDCys-3-Pal-DTrp-Lys-Thr-Cys)-2-Nal-NHMe] (H-[Phe(4-Cl)][dNMeC][3Pal][dW]KTC[2Nal]-NHMe; disulfide 2-7)
189 ± 35 nM | – | – | 450 ± 132 nM | – | – | C[C@@H](O)[C@@H]1NC(=O)[C@H](CCCCN)NC(=O)[C@@H](Cc2c[nH]c3ccccc23)NC(=O)[C@H](Cc2cccnc2)N(C)C(=O)[C@H](NC(=O)[C@@H](N)Cc2ccc(Cl)cc2)CSSC[C@@H](C(=O)N[C@@H](Cc2ccc3ccccc3c2)C(N)=O)NC1=O [Peptide 3, Cpa-cyclo(DCys-Nme3-Pal-DTrp-Lys-Thr-Cys)-2-Nal-NH2]
27.3 ± 1.45 nM | 1000 nM | 1000 nM | – | 176 ± 65.1 nM | – | C[C@@H](O)[C@@H]1NC(=O)[C@H](CCCCN)N(C)C(=O)[C@@H](Cc2c[nH]c3ccccc23)NC(=O)[C@H](Cc2cccnc2)NC(=O)[C@H](NC(=O)[C@@H](N)Cc2ccc3ccccc3c2)CSSC[C@@H](C(=O)N[C@H](Cc2c[nH]c3ccccc23)C(N)=O)NC1=O [Peptide 15, Nal-cyclo(DCys-3-Pal-DTrp-NMeLys-Thr-Cys)-DTrp-NH2] (H-[2Nal][dC][3Pal][dW][NMeK]TC[dW]-NH2; disulfide 2-7)
117 ± 24.6 nM | 1000 nM | 1000 nM | 584 ± 305 nM | 766 ± 110 nM | – | CNC(=O)[C@@H](NC(=O)[C@@H]1CSSC[C@@H](N(C)C(=O)[C@@H](N)Cc2ccc(Cl)cc2)C(=O)N[C@@H](Cc2cccnc2)C(=O)N[C@H](Cc2c[nH]c3ccccc23)C(=O)N[C@@H](CCCCN)C(=O)N[C@@H]([C@@H](C)O)C(=O)N1)C(c1ccccc1)c1ccccc1 [Peptide 10, Cpa-cyclo(NMeDCys-3-Pal-DTrp-Lys-Thr-Cys)-Dip-NHMe] (H-[Phe(4-Cl)][dNMeC][3Pal][dW]KTC[Dip]-NHMe; disulfide 2-7)
24.7 ± 1.61 nM | – | – | 537 ± 44.8 nM | 313 ± 4.1 nM | – | C[C@@H](O)[C@@H]1NC(=O)[C@H](CCCCN)N(C)C(=O)[C@@H](Cc2c[nH]c3ccccc23)NC(=O)[C@H](Cc2cccnc2)NC(=O)[C@H](NC(=O)[C@@H](N)Cc2cccnc2)CSSC[C@@H](C(=O)N[C@H](Cc2c[nH]c3ccccc23)C(N)=O)NC1=O [Peptide 16, 3-Pal-cyclo(DCys-3-Pal-DTrp-NMeLys-Thr-Cys)-DTrp-NH2] (H-[3Pal][dC][3Pal][dW][NMeK]TC[dW]-NH2; disulfide 2-7)
5.45 ± 0.3 nM | – | – | 91.4 ± 11.9 nM | – | – | C[C@@H](O)[C@@H]1NC(=O)[C@H](CCCCN)N(C)C(=O)[C@@H](Cc2c[nH]c3ccccc23)NC(=O)[C@H](Cc2cccnc2)NC(=O)[C@H](NC(=O)[C@@H](N)Cc2ccc(Cl)cc2)CSSC[C@@H](C(=O)N[C@H](Cc2c[nH]c3ccccc23)C(N)=O)NC1=O [Peptide 14, Cpa-cyclo(DCys-3-Pal-DTrp-NMeLys-Thr-Cys)-DTrp-NH2] (H-[Phe(4-Cl)][dC][3Pal][dW][NMeK]TC[dW]-NH2; disulfide 2-7)
17.1 ± 5.5 nM | – | – | 66 ± 5.8 nM | 5.98 ± 0.91 nM | – | C[C@@H](O)[C@@H]1NC(=O)[C@H](CCCCN)N(C)C(=O)[C@@H](Cc2c[nH]c3ccccc23)NC(=O)[C@H](Cc2cccnc2)NC(=O)[C@H](NC(=O)[C@@H](N)Cc2ccc(Cl)cc2)CSSC[C@@H](C(=O)N[C@@H](Cc2ccc3ccccc3c2)C(N)=O)NC1=O [Peptide 5, Cpa-cyclo(DCys-3-Pal-DTrp-NMeLys-Thr-Cys)-2-Nal-NH2] (H-[Phe(4-Cl)][dC][3Pal][dW][NMeK]TC[2Nal]-NH2; disulfide 2-7)
